Reference: PubChem BioAssay (NCI)
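Dose response: 5 concentrations. Exposure: 48 h. Format: 96-well plates. Endpoint: linear interpolation; highest concentration if not reached. GI50 marks 50% less growth. At the TGI there is no net growth.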

How the values were obtained:
Assay in all cases: NCI tumour cell line growth inhibition, 48 h
[1] = tested on: HOP-18 NSCLC
[2] = tested on: SNB-78 CNS
[3] = tested on: DMS 114 small cell lung
[4] = tested on: DMS 273 small cell lung
[5] = tested on: LXFL 529 NSCLC
[6] = tested on: RXF-631 renal
[7] = tested on: KM20L2 colon
[8] = tested on: M19-MEL melanoma
[9] = tested on: XF 498 CNS
[10] = tested on: P388 leukemia
[11] = tested on: SN12K1 renal
[12] = tested on: P388/ADR leukemia

Structure (SMILES)	TGI [1] [µM]	TGI [2] [µM]	TGI [3] [µM]	TGI [4] [µM]	TGI [5] [µM]	TGI [6] [µM]	TGI [7] [µM]	TGI [8] [µM]	TGI [9] [µM]	TGI [10] [µM]	TGI [11] [µM]	GI50 [2] [µM]	TGI [12] [µM]
CCC1=C(C[C@H]2NCCc3cc(OC)c(OC)cc32)C[C@H]2c3cc(OC)c(OC)cc3CCN2C1	> 100	1.32	0.0598	0.109	6.4	1.43	0.14	0.0983	–	–	–	–	–
Cc1cc2c(=O)c3ccc(Cl)cc3[nH]c2c(C(N)=O)c1C	–	> 100	> 100	> 100	> 100	> 100	> 100	> 100	> 100	–	–	–	–
O=C1c2ccncc2C(=O)c2c(O)ccc(O)c21	25.5	–	13	–	22	–	8.12	9.58	15.2	–	–	–	–
Cc1ccc(N2C(=O)C3CSCN3C2=O)cc1 (stereo unspecified)	> 100	> 100	> 100	–	–	–	–	> 100	> 100	> 100	> 100	> 100	> 100
